Target: P. falciparum apicoplast DNA polymerase (Pf-apPOL) (Plasmodium falciparum, UniProt Q8ILY1)
Test: Fluorescence-based high-throughput DNA polymerase assay (molecular beacon), primary screen and dose-response
Assay type: biochemical
Method: The HT assay employs a molecular beacon, a stem-loop DNA template with a Cy3 dye and the Black Hole Quencher on the 3′ and 5′ ends of the DNA, respectively. Pf-apPOL concentration is based on a calculated absorptivity of ε280 = 56750 M^−1 cm^−1. Reactions were carried out at 25 °C, using Corning 3575 […] (well-volume, 20 µL). Assays testing for compound inhibition composed of reaction buffer (pH 7.9 in 50 mM potassium acetate, 20 mM Tris-acetate and 10 mM magnesium acetate), Pf-apPOL (20 nM), DNA substrate (20 nM), dNTPs (6 µM), and compound (10 µM in DMSO). The DNA and nucleotide substrates (dNTPs) were at concentrations of 20 nM and 6 µM, respectively, in the assay. Pf-apPOL was incubated in the reaction buffer with dNTPs and the compound of interest (10 µM, in the assay) at 25 °C for 10 min. The DNA substrate was then added and the reaction was allowed to proceed for 90 min at 25 °C.
Each assay plate contained 16 negative controls (no Pf-apPOL, DMSO present) and 16 positive controls (Pf-apPOL present, no DMSO). The fluorescence of each well was determined using a BioTek Synergy Neo fluorescence plate reader using excitation and emission wavelengths of 555 and 570 nm, respectively.
In the above, Min is the average of fluorescence emission of the negative controls (substrate only), Max the average fluorescence emission from the positive controls (enzyme + substrate), and Test the emission from the assays in the presence of compounds (enzyme + compound + substrates). […] […] The IC50 of each compound was determined using Equation (2): (2) IC50= Vmax/(1+ (I/IC50)^n)
In the above, n measures cooperativity, with n > 1 indicating synergistic binding of more than a single molecule of the compound.
To identify apPOL inhibitors we utilised our previously developed high-throughput DNA polymerase assay. The HT assay is based on a molecular beacon DNA template that forms a stem-loop with a Cy3 dye and the Black Hole Quencher on the 3′ and 5′ ends of the DNA, respectively. DNA polymerase activity extends an annealed primer through the stem region, displacing the fluorophore from the quencher, thereby increasing its fluorescence (Figure 1(A)). The assay accurately recapitulates the kinetic behaviour of apPOL, as measured through more conventional low-throughput gel-based assays. The Z′ factor for the assay described here was 0.9 across all plates (data not shown).
Figure 1. High-throughput screening. (A) The fluorescent-based DNA polymerase assay used to screen the compound libraries. The DNA template strand is a hairpin loop with a primer annealed to the loop. The 3’ end of the primer is 11 bases away from the 6 bp duplex. Strand displacement activity of the DNA polymerase separates the Cy3 dye from the Black hole quencher leading to an increase in fluorescent signal. (B) The high-throughput assay workflow. The DNA polymerase is incubated with […] compound for 10 min prior to addition of the hairpin substrate. The reaction is quenched at 3 different time points and the fluorescent signal is measured and % inhibition is determined using the provided equation.

[1] = primary screen value of the 186 hits; unit not given; 90 min, 10 µM
[2] = supplemental file 2, sheet IC50 nontoxic compounds; Pf-apPOL

P. falciparum apicoplast DNA polymerase (Pf-apPOL), sequence (Q8ILY1 entry or part of it): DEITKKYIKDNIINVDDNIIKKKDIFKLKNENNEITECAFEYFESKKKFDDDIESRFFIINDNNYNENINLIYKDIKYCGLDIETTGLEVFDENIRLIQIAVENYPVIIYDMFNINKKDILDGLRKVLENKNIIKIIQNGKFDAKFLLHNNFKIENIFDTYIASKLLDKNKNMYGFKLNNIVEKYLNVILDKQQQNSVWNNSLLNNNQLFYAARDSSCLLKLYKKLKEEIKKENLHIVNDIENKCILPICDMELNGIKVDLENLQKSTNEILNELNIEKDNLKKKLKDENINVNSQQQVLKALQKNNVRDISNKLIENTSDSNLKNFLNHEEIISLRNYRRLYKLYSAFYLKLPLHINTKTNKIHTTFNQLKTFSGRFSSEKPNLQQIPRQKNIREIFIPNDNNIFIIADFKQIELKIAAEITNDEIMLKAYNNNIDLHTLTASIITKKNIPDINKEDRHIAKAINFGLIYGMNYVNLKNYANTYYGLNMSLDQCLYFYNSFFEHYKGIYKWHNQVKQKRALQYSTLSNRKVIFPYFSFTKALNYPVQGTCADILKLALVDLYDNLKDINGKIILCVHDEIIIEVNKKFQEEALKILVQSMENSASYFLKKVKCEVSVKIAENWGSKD

O=C(Cn1ccc2c(=O)[nH]ccc21)Nc1ccccc1Cl [Molecule 19, O=C(Cn1ccc2c1cc[nH]c2=O)Nc1ccccc1Cl]
% inhibition Apo pol 10' (DRC-1; concentration 2.5; 10'): 11.0481% | % inhibition Apol 90' (DRC-1; concentration 2.5; 90'): 3.184% | % inhibition apPOL 180' (DRC-1; concentration 2.5; 180'): -2.947% | % inhibition Apo pol 10' (DRC-1; concentration 5; 10'): 18.9507% | % inhibition Apol 90' (DRC-1; concentration 5; 90'): 7.548% | % inhibition apPOL 180' (DRC-1; concentration 5; 180'): -2.382% | % inhibition Apo pol 10' (DRC-1; concentration 10; 10'): 79.9443% | % inhibition Apol 90' (DRC-1; concentration 10; 90'): 71.2049% | % inhibition apPOL 180' (DRC-1; concentration 10; 180'): 56.5053% | % inhibition Apo pol 10' (DRC-1; concentration 20; 10'): 88.2896% | % inhibition Apol 90' (DRC-1; concentration 20; 90'): 90.2431% | % inhibition apPOL 180' (DRC-1; concentration 20; 180'): 88.4548% | % inhibition Apo pol 10' (DRC-1; concentration 40; 10'): 86.4384% | % inhibition Apol 90' (DRC-1; concentration 40; 90'): 91.2458% | % inhibition apPOL 180' (DRC-1; concentration 40; 180'): 93.0665% | % inhibition Apo pol 10' (DRC-1; concentration 80 (unit not given); 10'): 78.354% | % inhibition Apol 90' (DRC-1; concentration 80; 90'): 86.1065% | % inhibition apPOL 180' (DRC-1; concentration 80; 180'): 89.6716% | % inhibition Apol 40' (DRC-2; 40'; concentration 10): 65% | % inhibition Apol 40' (DRC-2; 40'; concentration 40): 65% | % inhibition apPOL 180' (DRC-2; 180'; concentration 20): 77% | % inhibition apPOL 180' (DRC-2; 180'; concentration 40): 77% | % inhibition Apo pol 5' (DRC-2; concentration 2.5; 5'): 15% | % inhibition Apol 40' (DRC-2; concentration 2.5; 40'): 14% | % inhibition ApPOL 90' (DRC-2; concentration 2.5; 90'): 9% | % inhibition apPOL 180' (DRC-2; concentration 2.5; 180'): -0.373% | % inhibition Apo pol 5' (DRC-2; concentration 5; 5'): 30% | % inhibition Apol 40' (DRC-2; concentration 5; 40'): 36% | % inhibition ApPOL 90' (DRC-2; concentration 5; 90'): 32% | % inhibition apPOL 180' (DRC-2; concentration 5; 180'): 18% | % inhibition Apo pol 5' (DRC-2; concentration 10; 5'): 48% | % inhibition Apol 40' (DRC-2; concentration 10; 40'): 65% | % inhibition ApPOL 90' (DRC-2; concentration 10; 90'): 67% | % inhibition apPOL 180' (DRC-2; concentration 10; 180'): 63% | % inhibition Apo pol 5' (DRC-2; concentration 20; 5'): 44% | % inhibition Apol 40' (DRC-2; concentration 20; 40'): 68% | % inhibition ApPOL 90' (DRC-2; concentration 20; 90'): 73% | % inhibition apPOL 180' (DRC-2; concentration 20; 180'): 77% | % inhibition Apo pol 5' (DRC-2; concentration 40; 5'): 37% | % inhibition Apol 40' (DRC-2; concentration 40; 40'): 65% | % inhibition ApPOL 90' (DRC-2; concentration 40; 90'): 70% | % inhibition apPOL 180' (DRC-2; concentration 40; 180'): 77% | % inhibition Apo pol 5' (DRC-2; concentration 80; 5'): 28% | % inhibition Apol 40' (DRC-2; concentration 80; 40'): 56% | % inhibition ApPOL 90' (DRC-2; concentration 80; 90'): 64% | % inhibition apPOL 180' (DRC-2; concentration 80; 180'): 72% | DNA Pol [1]: 82 | DNA Pol (primary screen value; head prints only 'DNA Pol'; 90 min, 10 µM): 82

N#CC(C#N)=C1SCN(c2cccc(Cl)c2)CS1 [Molecule 29]
IC50 [2]: 11.9 µM

O=C(NCC1CCN(C2CCCC2)CC1)C(=O)NC1CCCC1 [KU0199596]
% inhibition Apo pol 10' (DRC-1; 10'; concentration 2.5): 0.01298% | % inhibition Apo pol 10' (DRC-1; 10'; concentration 5): -3.723% | % inhibition Apo pol 10' (DRC-1; 10'; concentration 10): 11.8369% | % inhibition Apo pol 10' (DRC-1; 10'; concentration 20): 30.2117% | % inhibition Apo pol 10' (DRC-1; 10'; concentration 40): 52.3157% | % inhibition Apo pol 10' (DRC-1; 10'; concentration 80): 62.5585% | % inhibition Apol 90' (DRC-1; 90'; concentration 2.5): 3.739% | % inhibition Apol 90' (DRC-1; 90'; concentration 5): 4.197% | % inhibition Apol 90' (DRC-1; 90'; concentration 10): 23.1731% | % inhibition Apol 90' (DRC-1; 90'; concentration 20): 45.2225% | % inhibition Apol 90' (DRC-1; 90'; concentration 40): 64.9359% | % inhibition Apol 90' (DRC-1; 90'; concentration 80): 71.081% | % inhibition apPOL 180' (DRC-1; 180'; concentration 2.5): 10.6167% | % inhibition apPOL 180' (DRC-1; 180'; concentration 5): 16.0151% | % inhibition apPOL 180' (DRC-1; 180'; concentration 10): 39.3373% | % inhibition apPOL 180' (DRC-1; 180'; concentration 20): 63.8149% | % inhibition apPOL 180' (DRC-1; 180'; concentration 40): 81.7381% | % inhibition apPOL 180' (DRC-1; 180'; concentration 80): 87.3658% | % inhibition Apo pol 5' (DRC-2; 5'; concentration 2.5): 6% | % inhibition Apo pol 5' (DRC-2; 5'; concentration 5): 9% | % inhibition Apo pol 5' (DRC-2; 5'; concentration 10): 24% | % inhibition Apo pol 5' (DRC-2; 5'; concentration 20): 35% | % inhibition Apo pol 5' (DRC-2; 5'; concentration 40): 45% | % inhibition Apo pol 5' (DRC-2; 5'; concentration 80): 45% | % inhibition Apol 40' (DRC-2; 40'; concentration 2.5): 2.8% | % inhibition Apol 40' (DRC-2; 40'; concentration 5): -3% | % inhibition Apol 40' (DRC-2; 40'; concentration 10): 21% | % inhibition Apol 40' (DRC-2; 40'; concentration 20): 34% | % inhibition Apol 40' (DRC-2; 40'; concentration 40): 44% | % inhibition Apol 40' (DRC-2; 40'; concentration 80): 41% | % inhibition ApPOL 90' (DRC-2; 90'; concentration 2.5): 2.29% | % inhibition ApPOL 90' (DRC-2; 90'; concentration 5): -11% | % inhibition ApPOL 90' (DRC-2; 90'; concentration 10): 19% | % inhibition ApPOL 90' (DRC-2; 90'; concentration 20): 30% | % inhibition ApPOL 90' (DRC-2; 90'; concentration 40): 40% | % inhibition ApPOL 90' (DRC-2; 90'; concentration 80): 39% | % inhibition apPOL 180' (DRC-2; 180'; concentration 2.5): -0.788% | % inhibition apPOL 180' (DRC-2; 180'; concentration 5): -84% | % inhibition apPOL 180' (DRC-2; 180'; concentration 10): 8% | % inhibition apPOL 180' (DRC-2; 180'; concentration 20): 16% | % inhibition apPOL 180' (DRC-2; 180'; concentration 40): 30% | % inhibition apPOL 180' (DRC-2; 180'; concentration 80): 34% | % inhibition Apol 40' (conc. 20; 40'; DRC-2): 34% | % inhibition ApPOL 90' (conc. 20; 90'; DRC-2): 30% | % inhibition Apo pol 5' (conc. 40; 5'; DRC-2): 45% | % inhibition apPOL 180' (conc. 40; 180'; DRC-2): 30% | % inhibition Apo pol 5' (conc. 80; 5'; DRC-2): 45% | % inhibition apPOL 180' (conc. 80; 180'; DRC-2): 34% | DNA Pol (primary screen value by plate and well; 90 min, 10 µM): 24 | DNA Pol [1]: 24

O=C(Nc1cccc(C(=O)Nc2ccc(S(=O)(=O)O)c3cc(S(=O)(=O)O)cc(S(=O)(=O)O)c23)c1)Nc1cccc(C(=O)Nc2ccc(S(=O)(=O)O)c3cc(S(=O)(=O)O)cc(S(=O)(=O)O)c23)c1 [Molecule 39]
IC50 [2]: 6.77 µM

Cn1nc(-c2nc(-c3ccccc3)no2)c2c1CCN(C(=O)Cc1cccs1)C2 [Molecule 58]
IC50 [2]: 18.5 µM
